Data: the CheMixHub viscosity set

Test: xn = mol fraction of the nth substance listed

CCCN + CCO
Conditions	viscosity [mPa·s]
298.15 K, 100 kPa, x2 = 0.0515	0.3851
298.15 K, 100 kPa, x2 = 0.098	0.4053
298.15 K, 100 kPa, x2 = 0.2026	0.4571
298.15 K, 100 kPa, x2 = 0.2763	0.4993
298.15 K, 100 kPa, x2 = 0.3874	0.5717
298.15 K, 100 kPa, x2 = 0.4986	0.6539
298.15 K, 100 kPa, x2 = 0.6013	0.7371
298.15 K, 100 kPa, x2 = 0.7485	0.865
298.15 K, 100 kPa, x2 = 0.7991	0.9101
298.15 K, 100 kPa, x2 = 0.8981	0.9984
298.15 K, 100 kPa, x2 = 0.961	1.052
303.15 K, 101.33 kPa, x1 = 0.1084	0.9336
303.15 K, 101.33 kPa, x1 = 0.2091	0.8629
303.15 K, 101.33 kPa, x1 = 0.3178	0.7773
303.15 K, 101.33 kPa, x1 = 0.4096	0.7051
303.15 K, 101.33 kPa, x1 = 0.5111	0.6253
303.15 K, 101.33 kPa, x1 = 0.6177	0.5566
303.15 K, 101.33 kPa, x1 = 0.7059	0.5029
303.15 K, 101.33 kPa, x1 = 0.8061	0.4453
303.15 K, 101.33 kPa, x1 = 0.901	0.3982
313.15 K, 101.33 kPa, x1 = 0.1084	0.7854
313.15 K, 101.33 kPa, x1 = 0.2091	0.7216
313.15 K, 101.33 kPa, x1 = 0.3178	0.6541
313.15 K, 101.33 kPa, x1 = 0.4096	0.5979
313.15 K, 101.33 kPa, x1 = 0.5111	0.5352
313.15 K, 101.33 kPa, x1 = 0.6177	0.475
313.15 K, 101.33 kPa, x1 = 0.7059	0.4325
313.15 K, 101.33 kPa, x1 = 0.8061	0.3864
313.15 K, 101.33 kPa, x1 = 0.901	0.3474

CC(C)C(C)O (centres undefined) + COc1ccccc1
viscosity [mPa·s], 101.33 kPa
Conditions	x2 = 0.1006	x2 = 0.2007	x2 = 0.3004	x2 = 0.4	x2 = 0.5008	x2 = 0.6009	x2 = 0.6997	x2 = 0.8003	x2 = 0.8998
303.15 K	2.405	1.858	1.476	1.223	1.067	0.981	0.937	0.919	0.913
313.15 K	1.731	1.397	1.157	0.991	0.889	0.832	0.808	0.799	0.794
323.15 K	1.273	1.066	0.925	0.83	0.771	0.736	0.718	0.707	0.699

CN1CCCN(C)C1=O + CCCCCCn1cc[n+](C)c1.[Cl-]
100 kPa
Conditions	viscosity [mPa·s]
298.15 K, x2 = 0.3083	45.85
308.15 K, x2 = 0.3981	63.85

CCCN + COCCO
viscosity [mPa·s]
Conditions	293.15 K	298.15 K
101 kPa, x2 = 0.0294	–	0.387
101 kPa, x2 = 0.0662	–	0.415
101 kPa, x2 = 0.0845	–	0.431
101 kPa, x2 = 0.1053	–	0.448
101 kPa, x2 = 0.1391	–	0.482
101 kPa, x2 = 0.1936	–	0.54
101 kPa, x2 = 0.2423	–	0.6
101 kPa, x2 = 0.2765	–	0.644
101 kPa, x2 = 0.321	–	0.708
101 kPa, x2 = 0.3635	–	0.775
101 kPa, x2 = 0.3989	–	0.835
101 kPa, x2 = 0.4418	–	0.909
101 kPa, x2 = 0.4845	–	0.974
101 kPa, x2 = 0.5165	–	1.031
101 kPa, x2 = 0.5599	–	1.106
101 kPa, x2 = 0.5942	–	1.166
101 kPa, x2 = 0.6575	–	1.265
101 kPa, x2 = 0.6877	–	1.309
101 kPa, x2 = 0.7452	–	1.384
101 kPa, x2 = 0.8042	–	1.442
101 kPa, x2 = 0.8424	–	1.47
101 kPa, x2 = 0.8852	–	1.495
101 kPa, x2 = 0.9064	–	1.505
101 kPa, x2 = 0.9584	–	1.522
101 kPa, x2 = 0.9794	–	1.527
101.3 kPa, x2 = 0.0502	0.396	0.38
101.3 kPa, x2 = 0.1009	0.435	0.415
101.3 kPa, x2 = 0.1501	0.479	0.453
101.3 kPa, x2 = 0.2002	0.533	0.501
101.3 kPa, x2 = 0.2504	0.599	0.559
101.3 kPa, x2 = 0.3	0.674	0.627
101.3 kPa, x2 = 0.3498	0.759	0.703
101.3 kPa, x2 = 0.3997	0.852	0.785
101.3 kPa, x2 = 0.4499	0.95	0.87
101.3 kPa, x2 = 0.4998	1.05	0.955
101.3 kPa, x2 = 0.5504	1.149	1.039
101.3 kPa, x2 = 0.6	1.241	1.116
101.3 kPa, x2 = 0.6498	1.325	1.186
101.3 kPa, x2 = 0.6999	1.4	1.249
101.3 kPa, x2 = 0.7495	1.462	1.304
101.3 kPa, x2 = 0.8	1.515	1.354
101.3 kPa, x2 = 0.8511	1.561	1.4
101.3 kPa, x2 = 0.8999	1.601	1.443
101.3 kPa, x2 = 0.9499	1.647	1.49

CCCCOC(C)=O + c1ccccc1
viscosity [mPa·s], 101 kPa
Conditions	298.15 K	308.15 K
x1 = 0.0487	0.601	0.527
x1 = 0.1494	0.598	0.528
x1 = 0.2494	0.598	0.532
x1 = 0.3494	0.6	0.536
x1 = 0.4454	0.604	0.541
x1 = 0.4954	0.607	0.544
x1 = 0.5489	0.611	0.548
x1 = 0.6497	0.62	0.556
x1 = 0.7503	0.632	0.565
x1 = 0.8496	0.647	0.575
x1 = 0.9424	0.663	0.586

CC(C)c1ccccc1 + CCO
viscosity [mPa·s], 101 kPa
Conditions	x1 = 0.0663	x1 = 0.1236	x1 = 0.2015	x1 = 0.2971	x1 = 0.4052	x1 = 0.5656	x1 = 0.7293
298.15 K	1.036	0.982	0.926	0.878	0.836	0.796	0.764
308.15 K	0.897	0.86	0.81	0.753	0.7	0.653	0.64

Clc1ccccc1Cl + CC#N
308.15 K, 101 kPa
Conditions	viscosity [mPa·s]
x1 = 0.1003	0.3803
x1 = 0.2063	0.4569
x1 = 0.3069	0.5299
x1 = 0.4058	0.6077
x1 = 0.4918	0.676
x1 = 0.5925	0.7617
x1 = 0.6956	0.8443
x1 = 0.7945	0.9395
x1 = 0.9016	1.027

CCC[n+]1ccccc1.F[B-](F)(F)F + CO
101 kPa
Conditions	viscosity [mPa·s]
303.15 K, x1 = 0.8956	59.95
323.15 K, x1 = 0.3918	4.475

CCCOC(=O)c1ccccc1 + CCCCCCCCCC
101 kPa
Conditions	viscosity [mPa·s]
298.15 K, x2 = 0.0819	2.098
298.15 K, x2 = 0.1156	2.012
298.15 K, x2 = 0.1582	1.889
298.15 K, x2 = 0.2027	1.779
298.15 K, x2 = 0.2437	1.682
298.15 K, x2 = 0.2875	1.589
298.15 K, x2 = 0.3302	1.501
298.15 K, x2 = 0.3837	1.407
298.15 K, x2 = 0.4284	1.338
298.15 K, x2 = 0.4707	1.277
298.15 K, x2 = 0.5198	1.213
298.15 K, x2 = 0.57	1.156
298.15 K, x2 = 0.6127	1.112
298.15 K, x2 = 0.7143	1.02
298.15 K, x2 = 0.773	0.977
298.15 K, x2 = 0.8262	0.94
298.15 K, x2 = 0.8749	0.914
298.15 K, x2 = 0.9333	0.887
308.15 K, x2 = 0.0562	1.757
308.15 K, x2 = 0.1002	1.658
308.15 K, x2 = 0.1418	1.569
308.15 K, x2 = 0.1788	1.495
308.15 K, x2 = 0.2302	1.4
308.15 K, x2 = 0.264	1.343
308.15 K, x2 = 0.3167	1.256
308.15 K, x2 = 0.356	1.198
308.15 K, x2 = 0.3966	1.142
308.15 K, x2 = 0.4436	1.087
308.15 K, x2 = 0.4971	1.029
308.15 K, x2 = 0.5403	0.99
308.15 K, x2 = 0.5866	0.952
308.15 K, x2 = 0.6432	0.908
308.15 K, x2 = 0.6916	0.875
308.15 K, x2 = 0.7401	0.847
308.15 K, x2 = 0.7945	0.816
308.15 K, x2 = 0.8513	0.789
308.15 K, x2 = 0.9295	0.759
318.15 K, x2 = 0.0529	1.466
318.15 K, x2 = 0.0776	1.417
318.15 K, x2 = 0.1165	1.349
318.15 K, x2 = 0.161	1.273
318.15 K, x2 = 0.2024	1.211
318.15 K, x2 = 0.2495	1.144
318.15 K, x2 = 0.2905	1.092
318.15 K, x2 = 0.3397	1.034
318.15 K, x2 = 0.3834	0.987
318.15 K, x2 = 0.432	0.94
318.15 K, x2 = 0.4779	0.899
318.15 K, x2 = 0.5308	0.857
318.15 K, x2 = 0.5771	0.824
318.15 K, x2 = 0.6312	0.79
318.15 K, x2 = 0.6794	0.763
318.15 K, x2 = 0.7616	0.722
318.15 K, x2 = 0.8328	0.693
318.15 K, x2 = 0.8708	0.679
318.15 K, x2 = 0.906	0.668
